According to patent US5552520A, “Therapeutic peptide derivatives” (Biomeasure, Inc., priority 1994, dated 1996):
Numbered stars: 1 amine (or outer) side, 2 acyl side, 3 side chain; on linkers, the order of the positions; unused ones are H or OH. Bridge positions count the residues as written; N and C are the ends. Square brackets hold non-standard residues; d marks the D form. Peptide text beside a SMILES is read from it. * marks the point of attachment. X2 = O=C([C@@H](Cc1ccccc1)N(CC(CO)(CO)CO)[*:1])[*:2]; 2Nal = N[C@@H](Cc1ccc2ccccc2c1)C(=O)O; X3 = O=C(CN(C(CO)(CO)CO)[*:1])[*:2]; X4 = O=C(CN1CCN(CCO)CC1)*

Columns and labels:
[1] = tested on: stimulated growth hormone release; test: Growth Hormone (GH) Inhibition Assay in rats (D-Ala2-GRF stimulated GH); format: in vivo, male Sprague Dawley rats; settings: s.c.; for Inhibition of stimulated growth hormone release (percentile control): 25 μg/kg
Protocol: Groups of five male Sprague Dawley rats (each having a weight between 250-300 g) were injected s.c. with a somatostatin derivative or saline. Thirty minutes prior to the selected post-drug time periods shown in table II (2 hours, 4 hours, 6 hours, 8 hours), rats were anesthetized with Nembutal i.p. (50 mg/kg). Fifteen minutes following anesthesia, an aliquot of blood was withdrawn by cardiac puncture over heparin to measure basal GH. Additionally, a s.c. injection of D-Ala^2 -GRF (10 μg/kg) was given. Fifteen minutes later, blood was withdrawn to quantitate the stimulated GH, which was measured in plasma using a radioimmunoassay supplied by NIADDKD. The percentage of GH inhibition was calculated from differences obtained between basal and stimulated GH values.
The efficacy of D-Phe-c[Cys-Tyr-D-Trp-Lys-Thr-Cys]-Nal-NH2 (SEQ ID NO. 113) (BIM-23060) in inhibiting growth hormone in rats is compared with other somatostatin derivatives (BIM-23167, BIM-23179, and BIM-23181) of the invention.
Additional experiments were conducted on D-Phe-c[Cys-Tyr-D-Trp-Lys-Abu-Cys]-Thr-NH2, (SEQ ID NO. 112) a somatostatin analog, and BIM-23190, BIM-23195 and BIM-23197, to determine the ED50 (i.e., the concentration of each compound required to inhibit fifty percent of growth hormone release after a specified time) of the respective compound. Experiments were conducted at a dose range of between 25 μg/kg and 0.25 μg/kg.

[2] = tested on: AR42J rat pancreas tumor cells; test: Antiproliferative assay on AR42J cells; format: cell-based; settings: Concentration 100 nM, AR42J Rat Pancreas Tumor Cells after 8 days
Protocol: The purified somatostatin analogs described above were also tested for activity against rapidly proliferating cells.
^1 Concentration 100 nM, AR42J Rat Pancreas Tumor Cells after 8 days.

somatostatin receptor = target: T1, somatostatin receptor (Rattus norvegicus, UniProt P30680); test: Somatostatin binding assay: in vitro inhibition of binding of [125I-Tyr11]SRIF-14 to rat AR42J pancreas membranes; settings: inhibition of [125I-Tyr11]SRIF-14 binding, read-out: IC50, in vitro binding affinity
T1 construct: SRIF-14 to rat AR42J pancreas membranes; endogenous in cells; host or cells: rat AR42J pancreatic cells (membrane preparation)
T1 sequence (P30680 whole entry): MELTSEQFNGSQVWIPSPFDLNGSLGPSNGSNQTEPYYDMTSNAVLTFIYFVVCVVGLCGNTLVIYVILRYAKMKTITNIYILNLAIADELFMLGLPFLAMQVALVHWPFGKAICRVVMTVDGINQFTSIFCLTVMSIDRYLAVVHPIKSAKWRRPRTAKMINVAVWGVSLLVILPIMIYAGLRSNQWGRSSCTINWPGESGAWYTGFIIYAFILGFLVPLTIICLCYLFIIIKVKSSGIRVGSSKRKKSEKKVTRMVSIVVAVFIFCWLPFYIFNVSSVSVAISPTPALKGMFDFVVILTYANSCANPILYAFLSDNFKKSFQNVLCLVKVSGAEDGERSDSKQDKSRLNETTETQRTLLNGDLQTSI

`CC[C@@H]1NC(=O)[C@H](CCCCN)NC(=O)[C@@H](Cc2c[nH]c3ccccc23)NC(=O)[C@H](Cc2ccc(O)cc2)NC(=O)[C@@H](NC(=O)[C@H](N)Cc2ccccc2)CSSC[C@@H](C(=O)N[C@H](C(N)=O)[C@@H](C)O)NC1=O` [BIM-23023, D-Phe-c[Cys-Tyr-D-Trp-Lys-Abu-Cys]-Thr-NH2, reference compound] was tested, and the “ED50, inhibition of stimulated growth hormone release” value (from here on “ED50, inhibition”) ([1]; 2 Hours) was 0.48 µg/kg, the “ED50, inhibition” value ([1]; 4 Hours) was 1.11 µg/kg and the “ED50, inhibition” value ([1]; 6 Hours) was 2.26 µg/kg. For the same molecule, the “ED50, inhibition” value ([1]; 8 Hours) was 4.32 µg/kg.
`CC(=O)OCC(COC(C)=O)(COC(C)=O)NC(=O)CCC(=O)N[C@H](Cc1ccc2ccccc2c1)C(=O)N[C@H]1CSSC[C@@H](C(=O)N[C@H](C(N)=O)[C@@H](C)O)NC(=O)[C@H](C(C)C)NC(=O)[C@H](CCCCN)NC(=O)[C@@H](Cc2c[nH]c3ccccc23)NC(=O)[C@H](Cc2ccc(O)cc2)NC1=O` [BIM-23107, (AcO-CH2)3 -C-NH-CO-(CH2)2 -CO-D-Nal-c[Cys-Tyr-D-Trp-Lys-Val-Cys]-Thr-NH2] was tested, and the “Cell growth (percent of control)” value [2] was 67.5% of control.
`CC(C)[C@@H]1NC(=O)[C@H](CCCCN)NC(=O)[C@@H](Cc2c[nH]c3ccccc23)NC(=O)[C@H](Cc2ccc(O)cc2)NC(=O)[C@@H](NC(=O)[C@@H](Cc2ccc3ccccc3c2)NC(=O)COC2=C(O)C(=O)O[C@@H]2[C@@H](O)CO)CSSC[C@@H](C(=O)N[C@H](C(N)=O)[C@@H](C)O)NC1=O` [BIM-23135] was tested, and the “Cell growth (percent of control)” value [2] was 62.9% of control.
Work on `CC(C)[C@@H]1NC(=O)[C@H](CCCCN)NC(=O)[C@@H](Cc2c[nH]c3ccccc23)NC(=O)[C@H](Cc2ccc(O)cc2)NC(=O)[C@@H](NC(=O)[C@@H](Cc2ccc3ccccc3c2)NC(=O)CCC(=O)NC(CO)(CO)CO)CSSC[C@@H](C(=O)N[C@H](C(N)=O)[C@@H](C)O)NC1=O` [BIM-23158, (HO-CH2)3 -C-NH-CO-(CH2)2 -CO-D-Nal-c[Cys-Tyr-D-Trp-Lys-Val-Cys]-Thr-NH2] yielded an IC50 (somatostatin receptor) of 0.33 nM.
Molecule `CC[C@@H]1NC(=O)[C@H](CCCCN)NC(=O)[C@@H](Cc2c[nH]c3ccccc23)NC(=O)[C@H](Cc2ccc(O)cc2)NC(=O)[C@@H](NC(=O)[C@@H](Cc2ccccc2)NC(=O)CCC(=O)NC(CO)(CO)CO)CSSC[C@@H](C(=O)N[C@H](C(N)=O)[C@@H](C)O)NC1=O` [BIM-23173, (HO-CH2)3 -C-NH-CO-(CH2)2 -CO-D-Phe-c[Cys-Tyr-D-Trp-Lys-Abu-Cys]-Thr-NH2] has an IC50 (somatostatin receptor) of 0.11 nM.
In the case of `C[C@@H](O)[C@@H]1NC(=O)[C@H](CCCCN)NC(=O)[C@@H](Cc2c[nH]c3ccccc23)NC(=O)[C@H](Cc2ccc(O)cc2)NC(=O)[C@@H](NC(=O)[C@@H](Cc2ccccc2)NC(=O)CNC(CO)(CO)CO)CSSC[C@@H](C(=O)N[C@@H](Cc2ccc3ccccc3c2)C(N)=O)NC1=O` [BIM-23179, (HO-CH2)3 -C-NH-CH2 -CO-D-Phe-c[Cys-Tyr-D-Trp-Lys-Thr-Cys]-Nal-NH2] (H-[X3][dF]CY[dW]KTC[2Nal]-NH2; disulfide 3-8), the IC50 (somatostatin receptor) is reported as 0.12 nM, the “Inhibition of stimulated growth hormone release (percentile control)” value (“Inhibition … (percentile control)” for short) ([1]; 2 Hours) is reported as 92.79 percentile control and the “Inhibition … (percentile control)” value ([1]; 4 Hours) is reported as 63.85 percentile control. For the same molecule, the “Inhibition … (percentile control)” value ([1]; 6 Hours) was 67.78 percentile control and the “Inhibition … (percentile control)” value ([1]; 8 Hours) was 68.26 percentile control.
`CC[C@@H]1NC(=O)[C@H](CCCCN)NC(=O)[C@@H](Cc2c[nH]c3ccccc23)NC(=O)[C@H](Cc2ccc(O)cc2)NC(=O)[C@@H](NC(=O)[C@@H](Cc2ccccc2)NC(=O)CNC(CO)(CO)CO)CSSC[C@@H](C(=O)N[C@H](C(N)=O)[C@@H](C)O)NC1=O` [BIM-23182, (HO-CH2)3 -C-NH-CH2 -CO-D-Phe-c[Cys-Tyr-D-Trp-Lys-Abu-Cys]-Thr-NH2] showed an IC50 (somatostatin receptor) of 0.12 nM.
With `CC[C@@H]1NC(=O)[C@H](CCCCN)NC(=O)[C@@H](Cc2c[nH]c3ccccc23)NC(=O)[C@H](Cc2ccc(O)cc2)NC(=O)[C@@H](NC(=O)[C@@H](Cc2ccccc2)NC(=O)COC2=C(OCC(O)CO)C(=O)O[C@@H]2[C@@H](O)CO)CSSC[C@@H](C(=O)N[C@H](C(N)=O)[C@@H](C)O)NC1=O` (stereo partly shown) [BIM-23183] the “Cell growth (percent of control)” value [2] was 69.1% of control.
`CC[C@@H]1NC(=O)[C@H](CCCCN)NC(=O)[C@@H](Cc2c[nH]c3ccccc23)NC(=O)[C@H](Cc2ccc(O)cc2)NC(=O)[C@@H](NC(=O)[C@@H](Cc2ccccc2)NC(=O)CN2CCN(CCO)CC2)CSSC[C@@H](C(=O)N[C@H](C(N)=O)[C@@H](C)O)NC1=O` [BIM-23190] was tested, and the IC50 (somatostatin receptor) was 0.2 nM.
`C[C@@H](O)[C@@H]1NC(=O)[C@H](CCCCN)NC(=O)[C@@H](Cc2c[nH]c3ccccc23)NC(=O)[C@H](Cc2ccc(O)cc2)NC(=O)[C@@H](NC(=O)[C@@H](Cc2ccccc2)NC(=O)CN2CCN(CCO)CC2)CSSC[C@@H](C(=O)N[C@@H](Cc2ccc3ccccc3c2)C(N)=O)NC1=O` [BIM-23191] (X4-[dF]CY[dW]KTC[2Nal]-NH2; disulfide 2-7) gave an IC50 (somatostatin receptor) of 0.08 nM.
Work on `CC[C@@H]1NC(=O)[C@H](CCCCN)NC(=O)[C@@H](Cc2c[nH]c3ccccc23)NC(=O)[C@H](Cc2ccc(O)cc2)NC(=O)[C@@H](NC(=O)[C@@H](Cc2ccccc2)NCC(CO)(CO)CO)CSSC[C@@H](C(=O)N[C@H](C(N)=O)[C@@H](C)O)NC1=O` [BIM-23195, (Ho-CH2)3 C-CH2 -D-Phe-C[Cys-Tyr-D-Trp-Lys-Abu-Cys]-Thr-NH2] yielded an IC50 (somatostatin receptor) of 0.08 nM.
Work on `CC[C@@H]1NC(=O)[C@H](CCCCN)NC(=O)[C@@H](Cc2c[nH]c3ccccc23)NC(=O)[C@H](Cc2ccc(O)cc2)NC(=O)[C@@H](NC(=O)[C@@H](Cc2ccccc2)NS(=O)(=O)CCNC(CO)(CO)CO)CSSC[C@@H](C(=O)N[C@H](C(N)=O)[C@@H](C)O)NC1=O` [BIM-23196] yielded an IC50 (somatostatin receptor) of 0.09 nM.
`CC[C@@H]1NC(=O)[C@H](CCCCN)NC(=O)[C@@H](Cc2c[nH]c3ccccc23)NC(=O)[C@H](Cc2ccc(O)cc2)NC(=O)[C@@H](NC(=O)[C@@H](Cc2ccccc2)NS(=O)(=O)CCN2CCN(CCO)CC2)CSSC[C@@H](C(=O)N[C@H](C(N)=O)[C@@H](C)O)NC1=O` [BIM-23197] gave an IC50 (somatostatin receptor) of 0.29 nM.
Work on `C[C@@H](O)[C@@H]1NC(=O)[C@H](CCCCN)NC(=O)[C@@H](Cc2c[nH]c3ccccc23)NC(=O)[C@H](Cc2ccc(O)cc2)NC(=O)[C@@H](NC(=O)[C@@H](Cc2ccccc2)NCC(CO)(CO)CO)CSSC[C@@H](C(=O)N[C@@H](Cc2ccc3ccccc3c2)C(N)=O)NC1=O` [BIM-23201, (HO-CH2)3 -C-CH2 -D-Phe-c[Cys-Tyr-D-Trp-Lys-Thr-Cys]-Nal-NH2] (H-[X2]CY[dW]KTC[2Nal]-NH2; disulfide 2-7) yielded an IC50 (somatostatin receptor) of 0.14 nM.
Work on `CC[C@@H]1NC(=O)[C@H](CCCCN)NC(=O)[C@@H](Cc2c[nH]c3ccccc23)NC(=O)[C@H](Cc2ccc(O)cc2)NC(=O)[C@@H](NC(=O)[C@@H](Cc2ccccc2)NC(=O)CN2CCN(CCOCCO)CC2)CSSC[C@@H](C(=O)N[C@H](C(N)=O)[C@@H](C)O)NC1=O` [BIM-23202] yielded an IC50 (somatostatin receptor) of 0.18 nM.
For `C[C@H](N)C(=O)NCC(=O)N[C@H]1CSSC[C@@H](C(=O)O)NC(=O)[C@H](CO)NC(=O)[C@H]([C@@H](C)O)NC(=O)[C@H](Cc2ccccc2)NC(=O)[C@H]([C@@H](C)O)NC(=O)[C@H](CCCCN)NC(=O)[C@H](Cc2c[nH]c3ccccc23)NC(=O)[C@H](Cc2ccccc2)NC(=O)[C@H](Cc2ccccc2)NC(=O)[C@H](CC(N)=O)NC(=O)[C@H](CCCCN)NC1=O` [SRIF-14, reference compound], the “Cell growth (percent of control)” value [2] was 91.3% of control.
`CSCC[C@H](NC(=O)[C@H](C)NC(=O)[C@@H]1CCCN1C(=O)[C@H](CC(N)=O)NC(=O)[C@H](CO)NC(=O)[C@H](CC(N)=O)NC(=O)[C@H](C)NC(=O)[C@@H](N)CO)C(=O)N[C@@H](C)C(=O)N1CCC[C@H]1C(=O)N[C@@H](CCCNC(=N)N)C(=O)N[C@@H](CCC(=O)O)C(=O)N[C@@H](CCCNC(=N)N)C(=O)N[C@@H](CCCCN)C(=O)N[C@@H](C)C(=O)NCC(=O)N[C@H]1CSSC[C@@H](C(=O)O)NC(=O)[C@H](CO)NC(=O)[C@H]([C@@H](C)O)NC(=O)[C@H](Cc2ccccc2)NC(=O)[C@H]([C@@H](C)O)NC(=O)[C@H](CCCCN)NC(=O)[C@H](Cc2c[nH]c3ccccc23)NC(=O)[C@H](Cc2ccccc2)NC(=O)[C@H](Cc2ccccc2)NC(=O)[C@H](CC(N)=O)NC(=O)[C@H](CCCCN)NC1=O` [SRIF-28, reference compound] was tested, and the “Cell growth (percent of control)” value [2] was 98.0% of control.
In the case of “D-Phe-c[Cys-Tyr-D-Trp-Lys-Thr-Cys]-Nal-NH2 [BIM-23060, reference compound]”, the “Inhibition … (percentile control)” value ([1]; 2 Hours) is reported as 86.39 percentile control, the “Inhibition … (percentile control)” value ([1]; 4 Hours) is reported as 64.96 percentile control and the “Inhibition … (percentile control)” value ([1]; 6 Hours) is reported as 47.62 percentile control. For the same molecule, the “Inhibition … (percentile control)” value ([1]; 8 Hours) was 38.15 percentile control.
